This assay relates to human cultured cell HEK cells. In words: Quantification of amyloid protein secreted by HEK cells expressing APP cDNA. In kind it is cell-based. The arrangement: Aβ42: unit not given here. To be noted: secreted by HEK cells expressing the APP cDNA, 2 days, culture supernatant. An excerpt:
Since the variant APP gene cDNA obtained in Example 1 had the variant inside the amyloid protein, a β secretase or γ secretase cleavage site was examined. Then, an expression vector of the variant APP gene cDNA was introduced into human cultured cell HEK cells known to express APP as well as to produce and secrete amyloid protein. The expression was left to occur for 2 days to obtain a culture supernatant, and an immunoprecipitated fraction obtained by using an anti-amyloid protein antibody was subjected to a mass analysis with the use of AXIMA-CFR manufactured by Shimadzu Corporation.
Note that a vacant expression vector dissolved into a normal saline was used as the control in Table 1. Also, Aβ42 represents Aβ1-42 and Aβ1-43 or Aβ1-42 (ΔE) and Aβ1-43 (ΔE), and Aβ40 represents Aβ1-40 or Aβ1-40 (ΔE).

“Wildtype APP: wildtype amyloid precursor protein expressed in human cultured HEK cells” came in with an Aβ40 (Aβ40 = Aβ1-40 or Aβ1-40 (ΔE)) of 200 pg/mL. The substance also yielded an Aβ42 (Aβ42 = Aβ1-42 and Aβ1-43 or their ΔE forms) of 26.

Values taken from patent publication US20080063636A1, “Variant Amyloid Protein” (priority 2004, published 2008).
